Reference: US9695180B2 (Incyte Corporation, priority 2014, dated 2017)
Where two headings read alike, the source gives them in different places.

Biological target: LSD-1 enzyme (Homo sapiens (Human), UniProt O60341)
Assay: LANCE LSD1/KDM1A demethylase assay (LSD1 histone demethylase biochemical assay)
Method: Example A: LSD1 Histone Demethylase Biochemical Assay
LANCE LSD1/KDM1A demethylase assay—10 μL of 1 nM LSD-1 enzyme (ENZO BML-SE544-0050) in the assay buffer (50 mM Tris, pH 7.5, 0.01% Tween-20, 25 mM NaCl, 5 mM DTT) were preincubated for 1 hour at 25° C. with 0.8 μL compound/DMSO dotted in black 384 well polystyrene plates. […] Reactions were stopped by addition of 10 μL 1× LANCE Detection Buffer (PerkinElmer CR97-100) supplemented with 1.5 nM Eu-anti-unmodified H3K4 Antibody (PerkinElmer TRF0404), and 225 nM LANCE Ultra Streptavidin (PerkinElmer TRF102) along with 0.9 mM Tranylcypromine-HCl (Millipore 616431). After stopping the reactions plates were incubated for 30 minutes and read on a PHERAstar FS plate reader (BMG Labtech).

Row | SMILES | IC50 | IC50 (1 nM LSD-1 enzyme, 1 hour preincubation at 25° C., Biotin-labeled Histone H3 peptide substrate, read-out: IC50)
1 | CN1CCC[C@@H](COc2nc(-c3ccc(C#N)cc3)c(-c3ccc(N4CCCC4=O)nc3)n3ccnc23)C1 [Example 48, 4-{8-{[(3R)-1-methylpiperidin-3-yl]methoxy}-5-[6-(2-oxopyrrolidin-1-yl)pyridin-3-yl]imidazo[1,2-a]pyrazin-6-yl}benzonitrile] | 50 to 500 nM | 
2 | CN1CCC[C@@H](COc2nc(-c3ccc(C#N)cc3)c(-c3ccc4scnc4c3)n3ccnc23)C1 [Example 55, 4-(5-(1,3-benzothiazol-5-yl)-8-{[(3R)-1-methylpiperidin-3-yl]methoxy}imidazo[1,2-a]pyrazin-6-yl)benzonitrile] | 50 to 500 nM | 
3 | CN1CCC[C@@H](COc2nc(-c3ccc(C#N)cc3)c(-c3ccc4c(c3)OCC(=O)N4C)n3ccnc23)C1 [Example 49, 4-(5-(4-methyl-3-oxo-3,4-dihydro-2H-1,4-benzoxazin-7-yl)-8-{[(3R)-1-methylpiperidin-3-yl]methoxy}imidazo[1,2-a]pyrazin-6-yl)benzonitrile] | 50 to 500 nM | 
4 | CN1CCC[C@@H](COc2nc(-c3ccc(C#N)cc3)c(-c3ccc4c(c3)CC(O)C4)n3ccnc23)C1 (single isomer, unassigned) [78 (peak 1)] |  | < 50 nM
5 | CN(C)[C@H]1CCN(c2nc(-c3ccc(C#N)cc3)c(-c3ccc(N4CCCC4=O)nc3)n3ccnc23)C1 [Example 104, 4-{8-[(3S)-3-(dimethylamino)pyrrolidin-1-yl]-5-[6-(2-oxopyrrolidin-1-yl)pyridin-3-yl]imidazo[1,2-a]pyrazin-6-yl}benzonitrile] | 50 to 500 nM | 
6 | Cc1ccc(-c2c(-c3ccc(C#N)cc3)nc(N(C)CCCN(C)C)c3nccn23)cc1 [Example 15, 4-[8-[[3-(dimethylamino)propyl](methyl)amino]-5-(4-methylphenyl)imidazo[1,2-a]pyrazin-6-yl]benzonitrile] | 50 to 500 nM | 
7 | CN1CCC[C@@H](COc2nc(-c3ccc(C#N)cc3)c(-c3ccc4c(c3)OCCO4)n3ccnc23)C1 [Example 50, 4-(5-(2,3-dihydro-1,4-benzodioxin-6-yl)-8-{[(3R)-1-methylpiperidin-3-yl]methoxy}imidazo[1,2-a]pyrazin-6-yl)benzonitrile] | 50 to 500 nM | 
8 | Cc1ccc(-c2c(-c3ccc(C#N)cc3)nc(OCCCN(C)C)c3nccn23)cc1 [Example 8, 4-[8-[3-(dimethylamino)propoxy]-5-(4-methylphenyl)imidazo[1,2-a]pyrazin-6-yl]benzonitrile] | 50 to 500 nM | 
9 | Cc1ccc(-c2c(-c3ccc(C#N)cc3)nc(C(=O)NCC3CNC3)c3nccn23)cc1 [Example 24, N-(azetidin-3-ylmethyl)-6-(4-cyanophenyl)-5-(4-methylphenyl)imidazo[1,2-a]pyrazine-8-carboxamide] | 50 to 500 nM | 
10 | Cc1ccc(-c2c(-c3ccc(C#N)cc3)nc(N(C)C(=O)N3CC[C@H](N(C)C)C3)c3nccn23)cc1 [Example 22, (3S)—N-[6-(4-cyanophenyl)-5-(4-methylphenyl)imidazo[1,2-a]pyrazin-8-yl]-3-(dimethylamino)-N-methylpyrrolidine-1-carboxamide] | 500 to 1000 nM | 
11 | Cc1ncc(-c2c(-c3ccc(C#N)cc3)nc(OC[C@@H]3CCCN(C)C3)c3nccn23)cc1C#N [Example 117, 5-(6-(4-cyanophenyl)-8-{[(3R)-1-methylpiperidin-3-yl]methoxy}imidazo[1,2-a]pyrazin-5-yl)-2-methylnicotinonitrile] | 50 to 500 nM | 
12 | N#Cc1ccc(-c2nc(OC[C@@H]3CCNC3)c3nccn3c2-c2ccccc2)cc1 [Example 26, 4-{(5-phenyl)-8-[(3R)-pyrrolidin-3-ylmethoxy]imidazo[1,2-a]pyrazin-6-yl}benzonitrile] | 50 to 500 nM | 
13 | CN1CCC[C@@H](COc2nc(-c3ccc(C#N)cc3)c(-c3ccc(CN4CCOCC4)c(F)c3)n3ccnc23)C1 [Example 82, 4-(5-[3-fluoro-4-(morpholin-4-ylmethyl)phenyl]-8-{[(3R)-1-methylpiperidin-3-yl]methoxy}imidazo[1,2-a]pyrazin-6-yl)benzonitrile] | 50 to 500 nM | 
